Measured values reported in ChEMBL document CHEMBL1133815, “Anti-Trypanosoma activity of some natural stilbenoids and synthetic related heterocyclic compounds” (Bioorg Med Chem Lett, 2001).
In brackets after ≈: the same amount, converted by molar mass. Several values for one entry are separate records, joined by “and”; a condition that tells them apart may be missing. Identical values can stand only once.

Columns and labels:
[1] = tested on: Trypanosoma cruzi; test: Inhibitory concentration against trypomastigotes (Y strain) of Trypanosoma cruzi; Inactive; assay type: functional, organism-based
[2] = tested on: Trypanosoma cruzi; test: Inhibitory concentration against epimastigotes (Tulahuen strain) of Trypanosoma cruzi; Inactive; assay type: functional, organism-based
[3] = tested on: Trypanosoma cruzi; test: Inhibitory concentration against Epimastigotes (Tulahuen strain) of Trypanosoma cruzi; assay type: functional, organism-based
[4] = Ratio of inhibitory concentration to that of reference drug was determined; assay type: functional
[5] = tested on: Trypanosoma cruzi; test: Inhibitory concentration against Trypomastigotes (Y strain) of Trypanosoma cruzi; assay type: functional, organism-based
[6] = Trypanosoma cruzi, read-out: IC50

Row | Structure (SMILES) | IC50 [1] [µg/mL] | IC50 [2] [µg/mL] | further results
1 | OC1(Cc2ccccc2)c2ccccc2C2=NCCCN21 (stereo unspecified) | > 100 |  | 
2 | O=c1[nH]nc(Cc2ccccc2)c2ccccc12 | > 100 | > 100 | 
3 | COc1ccc(Cc2nn(C)c(=O)c3ccccc23)cc1 | > 100 | > 100 | 
4 | O=C1O/C(=C\c2ccc(Cl)cc2)c2ccccc21 | > 100 | > 100 | 
5 | COc1ccc(C(=O)C(=O)c2ccccc2C(=O)N2CCCCC2)cc1OC | > 100 | > 100 | 
6 | COc1ccc(CCc2cc(O)cc(OC)c2C(=O)O)cc1 [ISONOTHOLAENIC ACID] | > 100 |  | 
7 | COc1cc(CC(=O)c2ccccc2C(=O)N2CCCCC2)cc(OC)c1OC | > 100 |  | 
8 | COc1ccc(Cc2nnc(O)c3ccccc23)cc1OC | > 100 | > 100 | 
9 | OC1(Cc2ccccc2)c2ccccc2C2=NCCN21 (stereo unspecified) | > 100 |  | 
10 | COc1ccc(C(=O)C(=O)c2ccccc2C(=O)N2CCCC2)cc1 | > 100 | > 100 | 
11 | O=C(C(=O)c1ccccc1C(=O)N1CCCCC1)c1ccccc1 | > 100 | > 100 | 
12 | O=C(Cc1ccc(Cl)cc1)c1ccccc1C(=O)N1CCCCC1 | > 100 | > 100 | 
13 | Cn1nc(Cc2ccccc2)c2ccccc2c1=O | > 100 | > 100 | 
14 | COc1cc(CC2(O)c3ccccc3C3=NCCN32)cc(OC)c1OC (stereo unspecified) | > 100 | > 100 | 
15 | COc1ccc(CC2(O)c3ccccc3C3=NCCCN32)cc1 (stereo unspecified) | > 100 | > 100 | 
16 | OC1(Cc2ccc3c(c2)OCO3)c2ccccc2C2=NCCCN21 (stereo unspecified) | > 100 | > 100 | 
17 | CCNC(=O)c1ccccc1C(=O)C(=O)c1ccc(OC)cc1 | > 100 | > 100 | 
18 | COc1cc(CC2(O)c3ccccc3C3=NCCCN32)cc(OC)c1OC (stereo unspecified) | > 100 | > 100 | 
19 | COc1ccc(Cc2nnc(O)c3ccccc23)cc1 | > 100 | > 100 | 
20 | OC1(Cc2ccc(Cl)cc2)c2ccccc2C2=NCCCN21 (stereo unspecified) | > 100 |  | 
21 | COc1cc(Cc2nn(C)c(=O)c3ccccc23)cc(OC)c1OC | > 100 | > 100 | 
22 | OC1(Cc2ccc3c(c2)OCO3)c2ccccc2C2=NCCN21 (stereo unspecified) | > 100 | > 100 | 
23 | Oc1nnc(Cc2ccc3c(c2)OCO3)c2ccccc12 | > 100 | > 100 | 
24 | COc1ccc(CC(=O)c2ccccc2C(=O)N2CCCCC2)cc1OC | > 100 | > 100 | 
25 | O=C1O/C(=C\c2ccc3c(c2)OCO3)c2ccccc21 | > 100 | > 100 | 
26 | COc1ccc(CCc2cc(OC(C)=O)cc(OC)c2C(=O)O)cc1 | > 100 | > 100 | 

Row | Structure (SMILES) | IC50 [1] [µg/mL] | IC50 [2] [µg/mL] | further results
27 | Cn1nc(Cc2ccc(Cl)cc2)c2ccccc2c1=O | > 100 | > 100 | 
28 | COc1ccc(/C=C2\OC(=O)c3ccccc32)cc1 | > 100 | > 100 | 
29 | O=C(Cn1ccnc1[N+](=O)[O-])NCc1ccccc1 [BENZNIDAZOLE] |  |  | IC50 [3]: 7.4 µg/mL and 30 µM; Ratio [4]: 1
30 | COc1ccc(CC2(O)c3ccccc3C3=NCCCN32)cc1OC (stereo unspecified) | > 100 | > 100 | 
31 | O=C1O/C(=C\c2ccccc2)c2ccccc21 | > 100 | 45 (≈ 202 µM) | 
32 | COc1ccc(CCc2cc(O)cc(OC)c2)cc1 | > 100 | > 100 | 
33 | COc1ccc(CC(=O)c2ccccc2C(=O)N2CCCCC2)cc1 | > 100 | > 100 | 
34 | COc1ccc(CC2(O)c3ccccc3C3=NCCN32)cc1 (stereo unspecified) | > 100 |  | 
35 | COc1cc(Cc2nnc(O)c3ccccc23)cc(OC)c1OC | > 100 | > 100 | 
36 | COc1ccc(CC2(O)c3ccccc3C3=NCCN32)cc1OC (stereo unspecified) | > 100 | > 100 | 
37 | COc1ccc(/C=C2\OC(=O)c3ccccc32)cc1OC | > 100 | > 100 | 
38 | O=C(C(=O)c1ccccc1C(=O)N1CCCCC1)c1ccc(Cl)cc1 | > 100 | > 100 | 
39 | O=C(Cc1ccccc1)c1ccccc1C(=O)N1CCCCC1 | > 100 | > 100 | 
40 | CN(C)c1ccc(C(=C2C=CC(=[N+](C)C)C=C2)c2ccc(N(C)C)cc2)cc1.[Cl-] [GENTIAN VIOLET] |  |  | IC50 [5, 6]: 100 µg/mL and 245 µM
41 | O=C(C(=O)c1ccccc1C(=O)N1CCCCC1)c1ccc2c(c1)OCO2 | > 100 | > 100 | 
42 | Cn1nc(Cc2ccc3c(c2)OCO3)c2ccccc2c1=O | > 100 | > 100 | 
43 | O=C(Cc1ccc2c(c1)OCO2)c1ccccc1C(=O)N1CCCCC1 | > 100 | > 100 | 
44 | COc1ccc(C(=O)C(=O)c2ccccc2C(=O)N2CCCCC2)cc1 | > 100 | > 100 | 
45 | COc1cc(/C=C2\OC(=O)c3ccccc32)cc(OC)c1OC | > 100 | > 100 | 
46 | COc1ccc(Cc2nn(C)c(=O)c3ccccc23)cc1OC | > 100 | > 100 | 
47 | Oc1nnc(Cc2ccc(Cl)cc2)c2ccccc12 | > 100 | > 100 | 
48 | OC1(Cc2ccc(Cl)cc2)c2ccccc2C2=NCCN21 (stereo unspecified) | 2.3 (≈ 7.7 µM) | 10 (≈ 33.5 µM) | IC50 [3]: 33.6 µM; IC50 [5, 6]: 7.9 µM
49 | COc1ccc(CCc2cc(O)cc(OC)c2C(=O)N2CCCCC2)cc1 |  |  | IC50 [3]: 30 µg/mL and 81.3 µM; IC50 [5]: 12 µg/mL and 33 µg/mL
50 | COc1cc(C(=O)C(=O)c2ccccc2C(=O)N2CCCCC2)cc(OC)c1OC | > 100 |  | 
51 | COC(=O)c1c(CCc2ccc(OC)cc2)cc(O)cc1OC | > 100 | > 100 | 
